The text below walks through data of PMC8016166, “Identification of a Potent and Selective 5-HT1A Receptor Agonist with In Vitro and In Vivo Antinociceptive Activity” (ACS Chemical Neuroscience, 2020).

The test system of data set [1] is superficial dorsal horn neurons (lamina I–II). The data set can be described thus: Patch-clamp recording from spinal cord slices. The class given is cell-based, mouse. Conditions: for neurons showing slow outward current: voltage clamp −60 mV. On the procedure: The Italian Ministry of Health approved all the experiments that were conducted on postnatal CD1 mice (P18–P25) in accordance with the Guide for the Care and Use of Laboratory Animals and the EU and Italian regulations on animal welfare. The spinal cord slices were obtained following the procedure described previously.[69],[70] Briefly, the animals were anesthetized with isoflurane and decapitated, the spinal cord and vertebrae were rapidly removed and placed in ice-cold dissecting Krebs’ solution (composition in mM:125 NaCl, 2.5 KCl, 1.25 NaH2PO4, 26 NaHCO3, 25 glucose, 6 MgCl2, 1.5 CaCl2, and 1 kynurenic acid, pH 7.4, 320 mOsm), bubbled with 95% O2, 5% CO2. The lumbar spinal cord was isolated, embedded in an agarose block (low melting point agarose 3%, Thermo Fisher Scientific, Waltham, USA), and transverse slices (500 μm thick) were obtained using a vibrating microtome (WPI, Sarasota, USA). The slices were incubated in oxygenated incubation Krebs’ solution (the same as dissecting but without kynurenic acid) at 35 °C for 30 min and used for recording. The Patch-clamp recording in whole-cell configuration was performed on lamina I–II neurons at room temperature. The slices were perfused at 2 mL/min with recording Krebs’solution (in mM: 125 NaCl, 2.5 KCl, 1.25 NaH2PO4, 26 NaHCO3, 25 glucose, 1 MgCl2, and 2 CaCl2, pH 7.4, 320 mOsm). Recordings of post-synaptic currents (EPSCs) were performed in voltage clamp, by using an intracellular solution with the following composition (in mM): 120 potassium methanesulfonate, 10 NaCl, 10 EGTA, 1 CaCl2, 10 HEPES, 5 ATP-Mg, pH adjusted to 7.2 with KOH, osmolarity 300 mOsm. 8-OH-DPAT was obtained from Sigma-Aldrich (Saint Louis, USA). The data were recorded and acquired using a Multiclamp 700A amplifier and the pClamp 10 software (Molecular Devices, Sunnyvale, USA). The sampling rate was 10 kHz, and the data were filtered at 2 kHz. The data were analyzed off-line using pClamp10 software and Minianalysis (Synaptosoft, USA). The data are expressed as the mean ± SEM and differences were considered significant for p < 0.05. The statistical significance for the effect on EPSC frequency was determined using the Kolmogorov–Smirnov test on individual neurons.
A general note: The patch-clamp technique gives a direct electrical read-out from membranes.

The subject of a further data set is α1. More on the design: method as in PMID 30043643. Conditions: previous work; cited from earlier work.
A further data set has as its system male Albino Swiss mice. Put plainly: Hot plate test. The format is in vivo, mouse. As for the experimental part: The experiments were performed on male Albino Swiss mice (20–25 g), where 4 animals were kept in a cage, in an environmentally controlled room (ambient temperature 22 ± 1 °C; relative humidity 50–60%; 12 h light/dark cycle, lights on at 8:00). Standard laboratory food (LSM, Agropol-Motycz, Poland) and filtered water were available ad libitum. All the behavioral experiments were carried out in accordance with the European Community Council Directive for Care and Use of Laboratory Animals (2010/63/EU) (2016), and approved by the Local Ethics Committee for Animal Experimentation. The tested compounds were administered intraperitoneally (i.p.), dissolved in DMSO (its final concentration of 0.1%), suspended in 0.5% Tween-80 (1–2 drops) and then diluted using an aqueous solution of 0.5% methylcellulose (tylose). All the compounds were given in a manner generally accepted in experimental pharmacology, in a volume of 10 mL/kg body weight. The animals were weighed immediately before injection. Each group consisted of 8 members. The control animals received an equivalent volume of the solvent at the respective time before the tests. […] Between injections, the mice were provided with stable living conditions and unrestricted access to food and water. All the experiments were conducted in the light phase between 09.00 a.m. and 05.00 p.m. For the hot plate test, the mice were placed on a hot plate (Ugo Basile Srl, Gemonio, Italy) maintained at a constant temperature of 55 °C with a cutoff time of 20 s. The baseline latency response (in seconds), induced by the thermal stimulus, with the mouse lifting either of the hind paws or jumping with all four feet off the hot plate, before administration of a compound was measured first. The animals were then administered with compounds and the post-treatment latency responses were determined at 30 min time intervals up to 180 min after drug injection. The antinociceptive effects of the compounds were expressed as a percentage of maximum possible effect (%MPE), which was calculated according to the following equation: [(T1 – T0)/(20 – T0)] × 100, where T0 and T1 are the predrug and post-drug latencies for hot plate response, respectively.[37],[38] The results were calculated using the one-way analysis of variance (ANOVA) followed by Bonferroni’s post hoc test. The results are presented as the means ± standard errors of mean (S.E.M.). The level of p < 0.05 was considered statistically significant. All the figures were prepared using the GraphPad Prism ver. 5.00 for Windows (GraphPad Software, San Diego, CA, USA), www.graphpad.com.

Data set [2] deals with 5-HT1AR. Set-up: method as in PMID 30043643. The conditions noted are these: previous work; cited from earlier work.
In data set [3] the test system is 5-HT1AR. More on the design: method as in PMID 30043643. The conditions noted are these: previous work, cited from earlier work; for potency pD2: agonist, GTPγS assay.
A further data set deals with T1, hERG (Homo sapiens, UniProt Q12809).
T1 construct: host or cells: CHO (hERG-CHO)
T1 sequence (Q12809 whole entry): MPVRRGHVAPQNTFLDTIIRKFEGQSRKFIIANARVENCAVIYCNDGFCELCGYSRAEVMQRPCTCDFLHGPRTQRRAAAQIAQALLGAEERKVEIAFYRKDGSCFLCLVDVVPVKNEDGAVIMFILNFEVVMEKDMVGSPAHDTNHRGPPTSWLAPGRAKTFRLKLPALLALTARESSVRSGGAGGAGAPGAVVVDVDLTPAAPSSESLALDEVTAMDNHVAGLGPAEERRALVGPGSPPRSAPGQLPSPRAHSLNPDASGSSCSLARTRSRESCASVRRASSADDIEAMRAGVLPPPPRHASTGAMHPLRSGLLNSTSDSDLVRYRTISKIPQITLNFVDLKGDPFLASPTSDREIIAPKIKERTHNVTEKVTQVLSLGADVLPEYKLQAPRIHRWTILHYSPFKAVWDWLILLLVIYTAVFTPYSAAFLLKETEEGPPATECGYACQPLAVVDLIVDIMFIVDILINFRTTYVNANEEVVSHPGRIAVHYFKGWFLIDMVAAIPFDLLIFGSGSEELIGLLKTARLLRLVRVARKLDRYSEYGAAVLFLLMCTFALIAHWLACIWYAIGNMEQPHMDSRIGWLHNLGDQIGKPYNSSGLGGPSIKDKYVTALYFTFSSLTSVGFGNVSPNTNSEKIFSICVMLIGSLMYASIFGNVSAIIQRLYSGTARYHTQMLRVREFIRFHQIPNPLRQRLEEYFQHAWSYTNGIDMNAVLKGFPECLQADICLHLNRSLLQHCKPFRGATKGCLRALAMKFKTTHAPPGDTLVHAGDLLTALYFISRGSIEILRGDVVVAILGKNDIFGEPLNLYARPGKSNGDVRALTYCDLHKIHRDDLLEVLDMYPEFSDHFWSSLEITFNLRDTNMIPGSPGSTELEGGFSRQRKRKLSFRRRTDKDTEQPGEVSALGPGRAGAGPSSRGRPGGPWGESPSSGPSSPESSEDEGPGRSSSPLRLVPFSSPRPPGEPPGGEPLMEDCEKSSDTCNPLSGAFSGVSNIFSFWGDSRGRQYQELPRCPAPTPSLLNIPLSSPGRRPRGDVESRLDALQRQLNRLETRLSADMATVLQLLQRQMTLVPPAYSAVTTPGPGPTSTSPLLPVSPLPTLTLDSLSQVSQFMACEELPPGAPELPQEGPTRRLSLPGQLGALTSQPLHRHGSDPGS
Put plainly: CiPA hERG QPatch assay (hERG-CHO automated patch-clamp). The conditions noted are these: human, CHO cells expressing hERG (hERG-CHO), read-out: % inhibition of tail current in hERG-CHO. The format is cell-based. An excerpt: (§1) After whole cell configuration is achieved, the cell is held at −80 mV. A 500 ms pulse to −40 mV is delivered to measure the leaking current, which is subtracted from the tail current online. Then, the cell is depolarized to +40 mV for 500 ms and then to −80 mV over a 100 ms ramp to elicit the hERG tail current. This paradigm is delivered once every 8 s to monitor the current amplitude.
(§2) The parameters measured were the maximum tail current evoked on stepping to 40 mV and ramping back to −80 mV from the test pulse. All data were filtered for seal quality, seal drop, and current amplitude. The peak current amplitude was calculated before and after compound addition, and the amount of block was assessed by dividing the Test compound current amplitude by the Control current amplitude. Control is the mean hERG current amplitude collected 15 s at the end of the control; Test Compound is the mean hERG current amplitude collected in the presence of test compound at each concentration.

In data set [4] the target is T2, human voltage gated potassium ion channel hERG (Homo sapiens, UniProt Q12809).
T2 construct: host or cells: CHO (hERG-CHO)
T2 sequence (Q12809 whole entry): as above
The description is as above. The conditions noted are these: 0.1 and 1 μM, QPatch. The format is cell-based.
From the text: as §1, §2

For `c1ccc(C2(c3ccccc3)OCC(CNCCOc3ccccc3-c3ccncc3)O2)cc1` (racemic) [rac-1, N-[(2,2-diphenyl-1,3-dioxolan-4-yl)methyl]-2-[2-(pyridin-4-yl)phenoxy]ethan-1-ammonium hydrogenoxalate], in data set [1] (50 μM), the “neurons showing sEPSC frequency decrease” value was 7 out of 23 and the “neurons showing slow outward current” value is listed as 5 out of 23. For the same molecule, the “neurons showing slow outward current” value in data set [1] (bath application 10 μM) is “not effective”. Also, the “selectivity 5-HT1A/α1” value in the data set with α1 is reported as 135. In the data set on male Albino Swiss mice (mice, 5, 10 and 20 mg/kg i.p., 30-180 min), the “MPE values in the hot plate test” value was “did not reveal any significant change in the MPE values”. Besides, on 5-HT1AR [2], the “5-HT1AR affinity pKi” value is 9.2. In the data set with 5-HT1AR [3], the “potency pD2” value is listed as 8.83.

As to `Cn1cncc1-c1ccccc1OCCNCC1COC(c2ccccc2)(c2ccccc2)O1` (racemic) [rac-2, N-((2,2-diphenyl-1,3-dioxolan-4-yl)methyl)-2-(2-(1-methyl-1H-imidazol-5-yl)phenoxy)ethan-1-ammonium hydrogenoxalate], in the data set with α1, the “selectivity 5-HT1A/α1” value is given as 132. The “5-HT1AR affinity pKi” value on 5-HT1AR [2] is given as 8.98. Also, in the data set on 5-HT1AR [3], the “potency pD2” value is reported as 5.46 and the “relative effectiveness (Emax)” value is recorded as 240%.

On to `c1ccc(C2(c3ccccc3)OC[C@H](CNCCOc3ccccc3-c3ccncc3)O2)cc1` [(S)-1, N-[(2,2-Diphenyl-1,3-dioxolan-4-yl)methyl]-2-[2-(pyridin-4-yl)phenoxy]ethan-1-ammonium hydrogenoxalate], for which, in data set [1] (10 μM), the “neurons showing sEPSC frequency decrease” value was 5 out of 12. In data set [1] (10 μM (S)-1, naloxone present), the “neurons showing outward current in presence of naloxone” value is given as 5 out of 12. Moreover, the “neurons showing significant decrease in sEPSC frequency in presence of naloxone” value in data set [1] (10 μM (S)-1, naloxone present) is recorded as 6 out of 12. Further, in data set [1] ((S)-1 with WAY-100635 10 μM, 7 neurons tested), the “outward current in presence of WAY-100635” value is “failed to evoke the outward currents”. In data set [1] (bath application 10 μM), the “neurons showing slow outward current” value is 5 out of 12. The inhibition at 0.1 µM on hERG (0.1 μM) was -3.35%. Besides, the inhibition at 1 µM on hERG (1 μM) worked out at 5.61%. For the same molecule, the inhibition at 10 µM at hERG (10 μM) was 66.7%. The hERG inhibition entry in data set [4] was “does not inhibit hERG”. Also, the “reaction time to the thermal stimulus (hot plate)” value is “a significant effect was only noted at 120 and 180 min” in the data set on male Albino Swiss mice (mice, 5 mg/kg i.p.); “significantly increased” in the data set on male Albino Swiss mice (mice, 10 mg/kg i.p., 30, 90, 120 and 180 min); “significantly increased the reaction time” in the data set on male Albino Swiss mice (mice, 20 mg/kg i.p., 30, 90, 120 and 180 min). Besides, in the data set with male Albino Swiss mice (mice, (S)-1 10 mg/kg + WAY-100635 3 mg/kg, at 30 min), the “antinociceptive effect in hot plate with WAY-100635” value is reported as “significantly reversed the antinociceptive effect”.

A word on the inhibition: it is the drop in the measured response relative to a control, in per cent.
